The values below come from US7893256B2, “Azabicycloalkane compounds” (Theravance, Inc., priority 2003, dated 2011).

Molecules are shown by their SMILES. Some results are limits rather than exact numbers.

In assay [1] the target is T1, human β2 adrenergic receptor (Homo sapiens, UniProt P07550).
T1 construct: expressed in transfected cells; membranes
Put plainly: Radioligand binding assay for human β2 adrenergic receptor (Assay Test Procedure A). How it is done:
Chinese hamster ovarian (CHO) cell lines stably expressing cloned human β1, β2 or β3 adrenergic receptors, respectively, were grown to near confluency in Hams F-12 media with 10% FBS in the presence of 500 μg/mL Geneticin. The cell monolayer was lifted with 2 mM EDTA in PBS. Cells were pelleted by centrifugation at 1,000 rpm, and cell pellets were either stored frozen at −80° C. or membranes were prepared immediately for use. For preparation of β1 and β2 receptor expressing membranes, cell pellets were re-suspended in lysis buffer (10 mM HEPES/HCl, 10 mM EDTA, pH 7.4 at 4° C.) and homogenized using a tight-fitting Dounce glass homogenizer (30 strokes) on ice. […] The protein concentration of the membrane suspension was determined by the methods described in Lowry et al., 1951, Journal of Biological Chemistry, 193, 265; and Bradford, Analytical Biochemistry, 1976, 72, 248-54. […]
Binding assays were performed in 96-well microtiter plates in a total assay volume of 100 μL with 10-15 μg of membrane protein containing the human β1, β2 or β3 adrenergic receptors in assay buffer (75 mM Tris/HCl pH 7.4 at 25° C., 12.5 mM MgCl2, 1 mM EDTA, 0.2% BSA). […] Non-specific binding was determined in the presence of 10 μM propranolol. […] Filter plates were washed three times with filtration buffer (75 mM Tris/HCl pH 7.4 at 4° C., 12.5 mM MgCl2, 1 mM EDTA) to remove unbound radioactivity. […]

For assay [2], the target named is T1, human β2 adrenergic receptor. Put plainly: Whole-cell cAMP Flashplate assay in CHO cell lines heterologously expressing human β2 adrenergic receptor (Assay Test Procedure C). In kind it is cell-based. How it is done: cAMP assays were performed in a radioimmunoassay format using the Flashplate Adenylyl Cyclase Activation Assay System with [^125I]-cAMP (NEN SMP004, PerkinElmer Life Sciences Inc., Boston, Mass.), according to the manufacturers instructions. For the determination of […] receptor agonist potency (EC50), CHO-K1 cell lines stably expressing cloned human β1, β2 or β3 adrenergic receptors were grown to near confluency in HAM's F-12 media supplemented with 10% FBS and Geneticin (250 μg/mL). Cells were rinsed with PBS and detached in dPBS (Dulbecco's Phosphate Buffered Saline, without CaCl2 and MgCl2) containing 2 mM EDTA or Trypsin-EDTA solution (0.05% trypsin/0.53 mM EDTA). After counting cells in Coulter cell counter, cells were pelleted by centrifugation at 1,000 rpm and re-suspended in stimulation buffer containing IBMX (PerkinElmer Kit) pre-warmed to room temperature to a concentration of 1.6×10^6 to 2.8×10^6 cells/mL. About 60,000 to 80,000 cells per well were used in this assay. […] The amount of cAMP produced (pmol/well) was calculated based on the counts observed for the samples and cAMP standards as described in the manufacturer's user manual. Data were analyzed by nonlinear regression analysis with the GraphPad Prism Software package (GraphPad Software, Inc., San Diego, Calif.) with the sigmoidal equation. […]

T1 sequence (P07550 whole entry): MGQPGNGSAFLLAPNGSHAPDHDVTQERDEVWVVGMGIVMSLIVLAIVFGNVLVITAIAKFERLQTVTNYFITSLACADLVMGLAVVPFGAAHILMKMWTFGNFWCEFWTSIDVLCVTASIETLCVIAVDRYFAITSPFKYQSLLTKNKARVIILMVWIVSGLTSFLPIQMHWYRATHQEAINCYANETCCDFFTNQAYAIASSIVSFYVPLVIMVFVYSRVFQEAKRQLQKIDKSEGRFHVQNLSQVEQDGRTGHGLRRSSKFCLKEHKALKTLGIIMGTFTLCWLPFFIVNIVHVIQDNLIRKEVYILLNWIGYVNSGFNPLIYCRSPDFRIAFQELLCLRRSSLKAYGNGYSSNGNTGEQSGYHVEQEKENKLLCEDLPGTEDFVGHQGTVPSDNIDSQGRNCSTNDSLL

Take `C[N+]1(CCCCCCCCCNC[C@H](O)c2ccc(O)c3[nH]c(=O)ccc23)C2CC(OC(=O)C(O)(c3cccs3)c3cccs3)CC1C1OC12.C[N+]1(CCCCCCCCCNC[C@H](O)c2ccc(O)c3[nH]c(=O)ccc23)C2CC(OC(=O)C(O)(c3cccs3)c3cccs3)CC1C1OC12.O=C([O-])C(F)(F)F.O=C([O-])C(F)(F)F` (stereo partly drawn) [Example 1, 7-(2-Hydroxy-2,2-dithiophen-2-ylacetoxy)-9-{9-[(R)-2-hydroxy-2-(8-hydroxy-2-oxo-1,2-dihydroquinolin-5-yl)ethylamino]nonyl}-9-methyl-3-oxa-9-azonia-tricyclo[3.3.1.0^2,4]nonane Ditrifluoroacetate]: the inhibition constant (Ki) in assay [1] (radioligand displacement, CHO cell membranes, [3H]-dihydroalprenolol) was less than 0.05 µM. Also, the “ratio of Ki(β1)/Ki(β2)” value in assay [1] (receptor subtype selectivity, binding, β2 over β1) was “greater than 5”. This compound also yielded a concentration giving a half-maximal response (EC50) in assay [2] (cAMP, CHO-K1 cells expressing cloned human β2 receptor) of less than 0.01 µM. Moreover, the “ratio of EC50(β1)/EC50(β2)” value in assay [2] (receptor subtype selectivity, functional, β2 over β1) is recorded as “greater than 10”.

Usually Ki stands for the dissociation constant of the complex between target and ligand, obtained from inhibition or displacement. The term EC50 denotes the concentration that produces a half-maximal response. Lower therefore signals greater potency.
